Reference: US9120749B2, “Quinoline derivatives and MELK inhibitors containing the same” (ONCOTHERAPY SCIENCE, INC., priority 2010, dated 2015)
Structures can show the parent of a compound that is named as a salt. Where two headings read alike, the source gives them in different places.

Assays:
[1] = biological target: MELK (Homo sapiens, UniProt Q14680); assay: Kinase assay: MELK activity, phosphorylation of FITC-labeled histone H3 peptide measured by IMAP fluorescence polarization; type: biochemical; conditions: read-out: IC50 (μM) (kinase assay)
Sequence of MELK (Q14680 whole entry, looked up): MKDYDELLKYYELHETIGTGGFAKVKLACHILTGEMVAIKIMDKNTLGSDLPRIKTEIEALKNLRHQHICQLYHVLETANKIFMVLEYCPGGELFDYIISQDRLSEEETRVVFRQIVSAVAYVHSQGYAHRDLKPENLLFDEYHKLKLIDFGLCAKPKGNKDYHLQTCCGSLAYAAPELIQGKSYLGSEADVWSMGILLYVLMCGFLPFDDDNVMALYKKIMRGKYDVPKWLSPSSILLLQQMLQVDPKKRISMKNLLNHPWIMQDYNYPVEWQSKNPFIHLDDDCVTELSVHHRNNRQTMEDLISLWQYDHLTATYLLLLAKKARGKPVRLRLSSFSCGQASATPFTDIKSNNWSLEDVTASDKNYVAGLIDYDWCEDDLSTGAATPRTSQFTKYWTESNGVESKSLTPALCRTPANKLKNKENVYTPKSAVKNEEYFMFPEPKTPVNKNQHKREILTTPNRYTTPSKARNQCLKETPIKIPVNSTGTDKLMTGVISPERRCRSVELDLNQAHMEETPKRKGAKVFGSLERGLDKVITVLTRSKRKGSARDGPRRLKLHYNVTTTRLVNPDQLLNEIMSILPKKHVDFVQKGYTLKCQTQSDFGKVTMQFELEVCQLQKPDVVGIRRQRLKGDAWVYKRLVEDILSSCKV
How it was run: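 Polarization of fluorescence served as the signal for MELK turnover of FITC-conjugated histone H3 peptide. Binding solution quenched each reaction, and plates stood 0.5 hour at room temperature before reading.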

[2] = test system: T47D cells; assay: Cell-based assay: anti-proliferative activity, Cell Counting Kit-8, 72 hours (T47D)
How it was run: (§1)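 Target-specific cytotoxicity: seeded cells treated with MELK inhibitor candidates for 72 h, proliferation quantified via CCK-8, IC50 fitted.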

[3] = test system: A549 cells; assay: Cell-based assay: anti-proliferative activity, Cell Counting Kit-8, 72 hours (A549); conditions: 72 hours
How it was run: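 Cell Counting Kit-8 read-out of A549 growth after 72 hours of inhibitor exposure, cells plated in 96-well format. Values reported as IC50.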

[4] = test system: HT-1197 cells; assay: Cell-based assay: anti-proliferative activity, Cell Counting Kit-8, 72 hours (HT-1197, negative control without MELK expression); conditions: HT1197 cells (negative control), 72 hours
How it was run: as §1

[5] = test system: DU4475 cells; assay: Cell-based assay: anti-proliferative activity, Cell Counting Kit-8, 72 hours (DU4475)

Row | Structure (SMILES) | IC50 [1] | IC50 ([2]; Homo sapiens, T47D, 72 h) | IC50 ([3]; Homo sapiens, A549, 72 h) | IC50 ([4]; Homo sapiens, HT1197, 72 h) | IC50 ([5]; Homo sapiens, DU-4475, 72 h) | IC50 ([1]; hydrochloride) | IC50 ([2]; 72 hours, hydrochloride) | IC50 ([3]; hydrochloride) | IC50 ([4]; hydrochloride) | IC50 ([5]; hydrochloride)
1 | COc1cc(-c2ccc3ncc(C(=O)C4CC4)c(N[C@H]4CC[C@H](CN5CC[C@@H](F)C5)CC4)c3c2)cc(Cl)c1O [Example 569] | 0.011 µM | 0.62 µM | 0.4 µM | 1.8 µM | 0.41 µM | – | – | – | – | –
2 | COc1cc(-c2ccc3ncc(C(=O)C4CC4)c(C4=CCN(C(=O)CN(C)C)CC4)c3c2)cc(Cl)c1O [Example 521, 1-(4-(6-(3-chloro-4-hydroxy-5-methoxyphenyl)-3-(cyclopropanecarbonyl)quinolin-4-yl)-5,6-dihydropyridin-1(2H)-yl)-2-(dimethylamino)ethanone] | 0.0024 µM | 0.22 µM | 0.18 µM | 1.5 µM | 0.27 µM | – | – | – | – | –
3 | CCCC(=O)c1cnc2ccc(-c3cc(Cl)c(O)c(Cl)c3)cc2c1N[C@H]1CC[C@H](CN(C)C)CC1 [Example 605, 1-{6-(3,5-Dichloro-4-hydroxyphenyl)-4-[trans-4-((dimethylamino)methyl)cylohexylamino]quinolin-3-yl}butan-1-one] | 0.002 µM | 0.095 µM | 0.13 µM | 1.1 µM | 0.051 µM | – | – | – | – | –
4 | CC(=O)c1cnc2ccc(-c3cc(Cl)c(O)c(Cl)c3)cc2c1Nc1ccc(C(N)=O)cc1 [Example 545, 4-(3-acetyl-6-(3,5-dichloro-4-hydroxyphenyl)quinolin-4-ylamino)benzamide] | 0.019 µM | 0.62 µM | 3.9 µM | 16 µM | 0.56 µM | – | – | – | – | –
5 | CN[C@H]1CC[C@H](Nc2c(C(C)=O)cnc3ccc(-c4cc(Cl)c(O)c(Cl)c4)cc23)CC1 [Example 558] | 0.0025 µM | 0.094 µM | 0.32 µM | 10 µM | 0.043 µM | – | – | – | – | –
6 | CC(C)C(=O)c1cnc2ccc(-c3cc(Cl)c(O)c(Cl)c3)cc2c1N[C@H]1CC[C@H](CN(C)C)CC1 [Example 608, 1-(6-(3,5-dichloro-4-hydroxyphenyl)-4-((1R,4R)-4-((dimethylamino)methyl)cyclohexylamino)quinolin-3-yl)-2-methylpropan-1-one] | 0.0022 µM | 0.15 µM | 0.25 µM | 0.46 µM | 0.072 µM | – | – | – | – | –
7 | COc1cc(-c2ccc3ncc(C(=O)C4CC4)c(Nc4ccc(N5CCNCC5)cn4)c3c2)cc(Cl)c1O [Example 528, (6-(3-chloro-4-hydroxy-5-methoxyphenyl)-4-(5-(piperazin-1-yl)pyridin-2-ylamino)quinolin-3-yl)(cyclopropyl)methanone hydrochloride] | 0.0044 µM | 1.8 µM | 1.3 µM | 4.2 µM | 1.7 µM | – | – | – | – | –
8 | NC1CCN(c2ccc(Nc3c(C(=O)C4CC4)cnc4ccc(-c5cc(F)c(O)c(Cl)c5)cc34)cn2)C1 (stereo not shown) [Example 576, (4-(6-(3-aminopyrrolidin-1-yl)pyridin-3-ylamino)-6-(3-chloro-5-fluoro-4-hydroxyphenyl)quinolin-3-yl)(cyclopropyl)methanone] | 0.0019 µM | 0.0094 µM | 0.026 µM | 0.53 µM | 0.012 µM | – | – | – | – | –
9 | O=C(c1cnc2ccc(-c3cc(F)c(O)c(Cl)c3)cc2c1Nc1cnn(C2CCNCC2)c1)C1CC1 [Example 520] | 0.0016 µM | 0.081 µM | 0.52 µM | 10 µM | 0.042 µM | – | – | – | – | –
10 | CN[C@H]1CC[C@H](Nc2c(C(C)=O)cnc3ccc(-c4cc(Cl)c(O)c(OC)c4)cc23)CC1 [Example 542] | 0.0043 µM | 0.078 µM | 0.1 µM | 1.7 µM | 0.069 µM | – | – | – | – | –
11 | NC1CCN(c2ccc(Nc3c(C(=O)C4CC4)cnc4ccc(-c5cc(Cl)c(O)c(Cl)c5)cc34)cn2)CC1 [Example 548, (4-(6-(4-aminopiperidin-1-yl)pyridin-3-ylamino)-6-(3,5-dichloro-4-hydroxyphenyl)quinolin-3-yl)(cyclopropyl)methanone] | 0.002 µM | 0.097 µM | 0.45 µM | 3.4 µM | 0.099 µM | – | – | – | – | –
12 | COc1cc(-c2ccc3ncc(C(=O)C4CC4)c(Nc4ccc(N5CCC(N)CC5)nc4)c3c2)cc(Cl)c1O [Example 550, (4-(6-(4-aminopiperidin-1-yl)pyridin-3-ylamino)-6-(3-chloro-4-hydroxy-5-methoxyphenyl)quinolin-3-yl)(cyclopropyl)methanone] | 0.0057 µM | 0.1 µM | 0.58 µM | 2.7 µM | 1 µM | – | – | – | – | –
13 | O=C(c1cnc2ccc(-c3cc(F)c(O)c(Cl)c3)cc2c1N[C@H]1CC[C@H](CN2CCCC2)CC1)C1CC1 [Example 587, (6-(3-chloro-5-fluoro-4-hydroxyphenyl)-4-((trans-4-(pyrrolidin-1-ylmethyl)cyclohexyl)amino)quinolin-3-yl)(cyclopropyl)methanone] | 0.0032 µM | 0.11 µM | 0.084 µM | 0.55 µM | 0.065 µM | – | – | – | – | –
14 | COc1cc(-c2ccc3ncc(C(=O)C4CC4)c(Nc4cnc(N5CCC(N)CC5)nc4)c3c2)cc(Cl)c1O [Example 553, (4-(2-(4-aminopiperidin-1-yl)pyrimidin-5-ylamino)-6-(3-chloro-4-hydroxy-5-methoxyphenyl)quinolin-3-yl)(cyclopropyl)methanone] | 0.0056 µM | 0.12 µM | 0.39 µM | 2.1 µM | 0.95 µM | – | – | – | – | –
15 | O=C(c1cnc2ccc(-c3cc(Cl)c(O)c(Cl)c3)cc2c1Nc1ccc(NC2CCCNC2)nc1)C1CC1 (stereo not shown) [Example 610, cyclopropyl(6-(3,5-dichloro-4-hydroxyphenyl)-4-(6-(piperidin-3-ylamino)pyridine-3-ylamino)quinolin-3-yl)methanone] | 0.0017 µM | 0.22 µM | 0.39 µM | 10 µM | 0.073 µM | – | – | – | – | –
16 | O=C(c1cnc2ccc(-c3cc(F)c(O)c(Cl)c3)cc2c1Nc1ccc(N2CCNCC2)cn1)C1CC1 [Example 525, (6-(3-chloro-5-fluoro-4-hydroxyphenyl)-4-(5-(piperazin-1-yl)pyridin-2-ylamino)quinolin-3-yl)(cyclopropyl)methanone] | 0.0048 µM | 0.48 µM | 1.7 µM | 11 µM | 0.46 µM | – | – | – | – | –
17 | NC1CCN(c2ncc(Nc3c(C(=O)C4CC4)cnc4ccc(-c5cc(F)c(O)c(Cl)c5)cc34)cn2)C1 (stereo not shown) [Example 573, (4-(2-(3-aminopyrrolidin-1-yl)pyrimidin-5-ylamino)-6-(3-chloro-5-fluoro-4-hydroxyphenyl)quinolin-3-yl)(cyclopropyl)methanone hydrochloride] | – | – | – | – | – | 0.004 µM | 0.0072 µM | 0.032 µM | 0.57 µM | 0.013 µM
18 | COC1CCN(C[C@H]2CC[C@H](Nc3c(C(=O)C4CC4)cnc4ccc(-c5cc(F)c(O)c(Cl)c5)cc34)CC2)C1 (stereo partly drawn) [Example 627, (6-(3-chloro-5-fluoro-4-hydroxyphenyl)-4-((trans-4-((3-methoxypyrrolidin-1-yl)methyl)cyclohexyl)amino)quinolin-3-yl)(cyclopropyl)methanone] | 0.024 µM | 0.15 µM | 0.11 µM | 0.55 µM | 0.083 µM | – | – | – | – | –
19 | Nc1ccc(Nc2c(C(=O)C3CC3)cnc3ccc(-c4cc(Cl)c(O)c(Cl)c4)cc23)cn1 [Example 590, (4-(6-aminopyridin-3-ylamino)-6-(3,5-dichloro-4-hydroxyphenyl)quinolin-3-yl)(cyclopropyl)methanone] | 0.014 µM | 0.48 µM | 0.48 µM | 2.2 µM | 0.19 µM | – | – | – | – | –
20 | COc1cc(-c2cc3c(Nc4ccc(N5CCNCC5)nc4)c(C(=O)C4CC4)cnc3cc2F)cc(Cl)c1O [Example 578, (6-(3-chloro-4-hydroxy-5-methoxyphenyl)-7-fluoro-4-(6-(piperazin-1-yl)pyridin-3-ylamino)quinolin-3-yl)(cyclopropyl)methanone] | 0.021 µM | 3 µM | 1.9 µM | 8 µM | 2.8 µM | – | – | – | – | –
21 | NC1CCN(c2ccc(Nc3c(C(=O)C4CC4)cnc4ccc(-c5cc(Cl)c(O)c(Cl)c5)cc34)cn2)C1 (stereo not shown) [Example 575, (4-(6-(3-aminopyrrolidin-1-yl)pyridin-3-ylamino)-6-(3,5-dichloro-4-hydroxyphenyl)quinolin-3-yl)(cyclopropyl)methanone] | 0.0031 µM | 0.028 µM | 0.068 µM | 1.2 µM | 0.029 µM | – | – | – | – | –
22 | NC1CCN(c2ccc(Nc3c(C(=O)C4CC4)cnc4ccc(-c5cc(Cl)c(O)c(Cl)c5)cc34)cn2)CC1 [Example 549, (4-(6-(4-Aminopiperidin-1-yl)pyridin-3-ylamino)-6-(3,5-dichloro-4-hydroxyphenyl)quinolin-3-1)(cyclopropyl)methanone hydrochloride] | – | – | – | – | – | 0.0027 µM | 0.15 µM | 0.48 µM | 3.2 µM | 0.078 µM
23 | O=C(c1cnc2ccc(-c3cc(F)c(O)c(Cl)c3)cc2c1Nc1ccc(NC2CCCNC2)nc1)C1CC1 (stereo not shown) [Example 611, (6-(3-chloro-5-fluoro-4-hydroxyphenyl)-4-(6-(piperidin-3-ylamino)pyridin-3-ylamino)quinolin-3-yl)(cyclopropyl)methanone] | 0.0023 µM | 0.13 µM | 0.57 µM | 10 µM | 0.39 µM | – | – | – | – | –
